Reference: US20240025903A1, “Bicyclic Compounds and Uses Thereof for the Treatment of Diseases” (Athira Pharma, Inc., priority 2020, published 2024)
Read-outs that look alike come from different tables or passages of the source.

Key:
HGF/MET system = target: T1, HGF/MET system (Homo sapiens, UniProt P08581+P14210); assay: Phospho-MET ELISA; format: cell-based; details: HEK293 cells, 1 ng/mL recombinant HGF, 15 minutes, pMET ELISA
T1 construct: HEK293 cells were prepared by passage into 6-well multi-plates; endogenous in cells; host or cells: HEK293
T1 sequence (P08581 308-1390 limits assumed): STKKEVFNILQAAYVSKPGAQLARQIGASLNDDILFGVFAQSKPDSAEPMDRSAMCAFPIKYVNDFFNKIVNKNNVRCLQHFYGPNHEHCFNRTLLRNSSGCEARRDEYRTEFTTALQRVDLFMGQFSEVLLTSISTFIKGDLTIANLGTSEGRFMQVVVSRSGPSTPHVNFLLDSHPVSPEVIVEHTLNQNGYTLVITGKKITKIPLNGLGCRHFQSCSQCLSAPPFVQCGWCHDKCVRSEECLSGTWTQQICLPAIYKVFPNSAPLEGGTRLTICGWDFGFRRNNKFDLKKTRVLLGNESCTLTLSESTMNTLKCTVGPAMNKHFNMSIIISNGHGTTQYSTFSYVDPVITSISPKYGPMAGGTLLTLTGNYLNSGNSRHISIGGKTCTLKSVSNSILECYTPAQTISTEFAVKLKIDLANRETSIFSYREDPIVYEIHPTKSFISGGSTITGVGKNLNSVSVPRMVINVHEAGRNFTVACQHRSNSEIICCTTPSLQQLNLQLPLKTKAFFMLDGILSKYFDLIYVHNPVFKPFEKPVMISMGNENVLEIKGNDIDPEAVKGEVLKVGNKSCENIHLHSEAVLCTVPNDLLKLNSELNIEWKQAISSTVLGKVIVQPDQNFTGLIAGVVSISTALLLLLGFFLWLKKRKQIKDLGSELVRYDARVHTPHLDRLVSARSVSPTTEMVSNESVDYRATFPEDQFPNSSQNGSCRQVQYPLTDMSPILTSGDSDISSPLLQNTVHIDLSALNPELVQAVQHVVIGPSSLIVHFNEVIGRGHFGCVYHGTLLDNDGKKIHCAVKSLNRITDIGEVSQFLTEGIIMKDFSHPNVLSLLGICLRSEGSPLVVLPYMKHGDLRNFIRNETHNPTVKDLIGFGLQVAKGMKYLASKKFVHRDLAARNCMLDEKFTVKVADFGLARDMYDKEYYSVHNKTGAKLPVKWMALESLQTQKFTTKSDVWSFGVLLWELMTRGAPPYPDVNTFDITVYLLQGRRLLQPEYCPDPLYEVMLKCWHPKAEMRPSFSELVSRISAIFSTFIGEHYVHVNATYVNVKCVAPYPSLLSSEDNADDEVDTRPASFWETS
T1 sequence (P14210 32-494 limits assumed): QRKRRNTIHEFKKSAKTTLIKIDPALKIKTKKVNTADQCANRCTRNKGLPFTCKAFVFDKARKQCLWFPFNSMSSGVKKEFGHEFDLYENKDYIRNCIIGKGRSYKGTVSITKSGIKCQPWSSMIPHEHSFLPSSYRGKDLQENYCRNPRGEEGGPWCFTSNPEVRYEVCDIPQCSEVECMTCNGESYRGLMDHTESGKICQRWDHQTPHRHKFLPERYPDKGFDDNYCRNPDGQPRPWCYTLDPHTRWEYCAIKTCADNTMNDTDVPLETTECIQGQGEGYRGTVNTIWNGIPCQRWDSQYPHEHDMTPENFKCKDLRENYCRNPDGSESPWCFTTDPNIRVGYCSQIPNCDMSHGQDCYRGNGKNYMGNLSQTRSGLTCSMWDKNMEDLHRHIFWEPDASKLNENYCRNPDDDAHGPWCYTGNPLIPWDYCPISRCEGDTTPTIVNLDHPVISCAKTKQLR
Outline: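 Serum-starved (≥8 h) HEK293 cells treated with compound plus 1 ng/mL recombinant HGF for 15 min at 37° C in triplicate, then lysed in RIPA. Equal protein (50–100 μg, BCA-normalized) run in pMET sandwich ELISA, A450 read. Responses scaled 1–10 between 1 ng/mL and 10 ng/mL HGF means, using peak efficacy.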

HepG2 cells = assay: Cytotoxicity assay (LDH release); format: cell-based; details: 48 hours, 0.1 to 100 μM
Procedure: This experiment was designed to obtain a preliminary assessment of cytotoxicity.
HepG2 cells were plated in 96-well cell culture plates and allowed to attach overnight at 37° C., 5% CO2 in EMEM+10% FBS. Treatments were made in complete media (EMEM+10% FBS) and included a dilution series of test compounds from 0.1 to 100 μM. Known cytotoxin cerivastatin was used as a positive assay control and prepared at a final concentration of 0.5 μM.
Growth media was replaced with treatment media (EMEM+10% FBS containing test compound dissolved in DMSO) and cells were incubated with test compounds for 48 hours. At the end of the incubation period, supernatant media from each well was transferred to a new plate and LDH assay working solution was added. LDH assay solution undergoes a colorimetric reaction in proportion to the amount of lactate dehydrogenase (an intracellular protein that was only found in the media in the presence of lysed cells) in the media. Color reaction was quantified by measurement of absorbance at a wavelength of 490 nm.
The signal range of the assay was determined by no manipulation in a negative control treatment and full lysis of all cells in a lysis control sample. Compounds that increase the level of cytotoxicity more than 20% above negative control samples were considered cytotoxic in this assay.

In vivo pharmacokinetics = assay: In vivo pharmacokinetics; set-up: species or system Sprague-Dawley rats; details: both sexes, Sprague-Dawley, rat; for Tmax: plasma; for AUC: dose-corrected plasma AUC; for Cmax: dose-corrected plasma Cmax
Procedure: Administration of exemplary compounds by selected routes followed by blood collection and compound quantification in plasma was used to determine the pharmacokinetic (PK) profile of the compounds. Compounds were administered to mixed-sex Sprague-Dawley rats of at least 250 grams by dissolving the test compound in DMSO and then diluting the compound into an appropriate vehicle, either saline or saline and poly-ethylene glycol. Dosing was accomplished by either tail vein puncture (IV) or oral gavage (PO), and animals were administered compound according to their weight at 1 mL/kg. At selected intervals following administration (10, 20, 40, 60, 120, and 360 minutes), blood was collected by tail vein blood draw. Whole blood was then processed by centrifugation to produce plasma. Compound content in plasma samples was quantified by LC-MS/MS and compared to an internal standard and standard curves to determine concentration accurately. Plasma concentrations were then averaged for each time point and plotted as a function of time. Area under the curve was calculated by integration of the curve, Cmax was the highest concentration achieved in plasma, and Tmax was determined by the timing of Cmax.

[1] = Oral availability calculation; format: in vivo, Sprague-Dawley rats; details: both sexes, Sprague-Dawley, plasma; rat, dose corrected AUC PO / dose corrected AUC IV x 100
Excerpt: Oral bioavailability is critical to developing small molecule therapeutics for oral administration. Calculations of oral bioavailability (% F) are accomplished by comparing in vivo pharmacokinetic data (Example B7) using IV dosing as the maximum possible exposure and determining the exposure rate after PO administration. In these studies, dose corrected AUC from PO administration was divided by dose corrected AUC from IV administration and multiplied by 100 to yield the % F. Results are shown in Table 9.

[2] = In vivo tissue distribution; set-up: species or system Sprague-dawley rats; details: rat
Procedure: The rate of distribution to target tissues is an important feature of therapeutic molecules. Tissue distribution of exemplary compounds was performed in mixed-sex Sprague-dawley rats. Test compounds were delivered via tail vein injection (IV) and tissues were collected at Tmax (10 minutes post administration). Animals were deeply anesthetized with isoflurane and whole blood was collected from the right atrium and processed by centrifugation to produce plasma. Animals were then fully perfused with PBS administered to the left ventricle to prevent blood contamination of tissues.
Tissues were collected and homogenized, and compound content in the target tissue was quantified by LC-MS/MS. Tissue distribution rates were determined by dividing the tissue concentration of compound by the plasma concentration and multiplying by 100.

[3] = IV (tail vein), read-out: TMAX IV
[4] = PO (oral gavage), read-out: TMAX PO
[5] = IV (tail vein), read-out: AUC IV
[6] = IV (tail vein), read-out: CMAX IV
[7] = PO (oral gavage), read-out: AUC PO
[8] = PO (oral gavage), read-out: CMAX PO

SMILES | Potency (augmentation of MET phosphorylation) (HGF/MET system) | Cytotoxicity (HepG2 cells) | Tmax (In vivo pharmacokinetics; [3]) [min] | Tmax (In vivo pharmacokinetics; [4]) [min] | AUC (In vivo pharmacokinetics; [5]) [ng·h/mL] | Cmax (In vivo pharmacokinetics; [6]) [ng/mL] | AUC (In vivo pharmacokinetics; [7]) [ng·h/mL] | Cmax (In vivo pharmacokinetics; [8]) [ng/mL] | bioavailability [1] [%] | Tissue Distribution (% Plasma exposure at 10 min post IV dose) Brain [2] | Tissue Distribution (% Plasma exposure at 10 min post IV dose) Cerebellum [2] | Tissue Distribution (% Plasma exposure at 10 min post IV dose) Cortex [2] | Tissue Distribution (% Plasma exposure at 10 min post IV dose) Hippocampus [2] | Tissue Distribution (% Plasma exposure at 10 min post IV dose) Sciatic Nerve [2] | Tissue Distribution (% Plasma exposure at 10 min post IV dose) Muscle [2]
C=CCCN1CC2N(C(=O)c3ccc(C(F)(F)F)cc3)CCC(=O)N2C(C)C1=O (centres unmarked) [Compound 22] | +++ (+++ indicates maximum potency at or above 1 nM) | ++++ (++++ indicates non-toxic at 100 μM) | < 30 | 30 to 60 | 1000 to 3000 | 100 to 999 | 100 to 999 | 100 to 999 | 25 to 50 | ++ (++ indicates distribution between 5 and 39%) | ++ (++ indicates distribution between 5 and 39%) | ++ (++ indicates distribution between 5 and 39%) | ++ (++ indicates distribution between 5 and 39%) | +++ (+++ indicates distribution between 40 and 69%) | 
CCC(C)CN1CC2N(Cc3ccc(OC(F)F)cc3)CCC(=O)N2[C@@H](C)C1=O (some centres unmarked) [Compound 6a] | + (+ indicates maximum potency at or above 100 nM) | ++++ (++++ indicates non-toxic at 100 μM) | < 30 | 30 to 60 | 1000 to 3000 | 1000 to 3000 | 1 to 100 | 1 to 100 | 1 to 25 | ++ (++ indicates distribution between 5 and 39%) | ++ (++ indicates distribution between 5 and 39%) | ++ (++ indicates distribution between 5 and 39%) | ++ (++ indicates distribution between 5 and 39%) | ++++ (++++ indicates distribution above 70%) | ++++ (++++ indicates distribution above 70%)
CC1C(=O)N(CCC2CCC2)CC2N(C(=O)c3ccc(C(F)(F)F)cc3)CCC(=O)N12 (centres unmarked) [Compound 20] | + (+ indicates maximum potency at or above 100 nM) | ++++ (++++ indicates non-toxic at 100 μM) | < 30 | > 60 | 1000 to 3000 | 1000 to 3000 | 1000 to 3000 | 100 to 999 | > 50 | ++++ (++++ indicates distribution above 70%) | ++++ (++++ indicates distribution above 70%) | ++++ (++++ indicates distribution above 70%) | +++ (+++ indicates distribution between 40 and 69%) | ++++ (++++ indicates distribution above 70%) | 
CCC(C)CN1CC2N(C(=O)c3ccc(OC(F)F)cc3)CCC(=O)N2[C@@H](C)C1=O (some centres unmarked) [Compound 2a] | ++ (++ indicates maximum potency at or above 10 nM) | ++++ (++++ indicates non-toxic at 100 μM) | < 30 | 30 to 60 | 1000 to 3000 | 1000 to 3000 | 100 to 999 | 100 to 999 | 25 to 50 | ++ (++ indicates distribution between 5 and 39%) | + (+ indicates distribution between 0.05 and 5%) | ++ (++ indicates distribution between 5 and 39%) | ++ (++ indicates distribution between 5 and 39%) | ++++ (++++ indicates distribution above 70%) | ++++ (++++ indicates distribution above 70%)
CCC(C)CN1CC2N(Cc3ccc(C(F)(F)F)cc3)CCC(=O)N2[C@@H](C)C1=O (some centres unmarked) [Compound 5a] | + (+ indicates maximum potency at or above 100 nM) | ++++ (++++ indicates non-toxic at 100 μM) | < 30 | 30 to 60 | 100 to 999 | 100 to 999 | 1 to 100 | 1 to 100 | 1 to 25 | ++++ (++++ indicates distribution above 70%) | ++++ (++++ indicates distribution above 70%) | ++++ (++++ indicates distribution above 70%) | ++++ (++++ indicates distribution above 70%) |  | 
